Reference: ChEMBL document CHEMBL1130203, “Novel fluoroquinolone antibacterial agents containing oxime-substituted (aminomethyl)pyrrolidines: synthesis and antibacterial activity of 7-(4-(aminomethyl)-3-(methoxyimino)pyrrolidin-1-yl)-1-cyclopropyl-6- fluoro-4-oxo-1,4-dihydro[1,8]naphthyridine-3-carboxylic acid (LB20304)” (J Med Chem, 1997)
Converted amounts (≈) assume the structure as drawn.

Experiments:
[1] = maximum Plasma concentration in Dog was determined after Peroral administration; assay type: ADME, organism-based, Canis lupus familiaris; set-up: route oral; settings: po
[2] = maximum Plasma concentration in Rats was determined after Peroral administration; assay type: ADME, organism-based; set-up: route oral; settings: rat, po
[3] = Area under curve was determined in Dogs after peroral administration; assay type: ADME, organism-based, Canis lupus familiaris; settings: dog, in vivo, po
[4] = Area under curve was determined in Rats after peroral administration; assay type: ADME, organism-based; settings: rat, in vivo, po
[5] = Half-life in Rats was determined after Peroral administration; assay type: ADME, organism-based; settings: rat, in vivo, po
[6] = Oral Bioavailability was determined in Dogs after Peroral administration; assay type: ADME, organism-based, Canis lupus familiaris; settings: dog, in vivo
[7] = Oral bioavailability in rat; assay type: ADME, organism-based; settings: in vivo
[8] = Tmax was determined in Rats after Peroral administration; assay type: ADME, organism-based; settings: rat, in vivo, po
[9] = Tmax was determined in dogs after Peroral administration; assay type: ADME, organism-based, Canis lupus familiaris; settings: dog, in vivo, po
[10] = system: Acinetobacter calcoaceticus; experiment: Minimum inhibitory concentration (MIC) against Acinetobacter calcoaceticus 15473; assay type: functional
[11] = Half-life in Dogs was determined after Peroral administration; assay type: ADME, organism-based, Canis lupus familiaris; settings: dog, in vivo, po
Escherichia coli [12] = experiment: Minimum inhibitory concentration (MIC) against Escherichia coli TEM9 2639E; assay type: functional
Klebsiella aerogenes = experiment: Minimum inhibitory concentration (MIC) against Klebsiella aerogenes 1082E; assay type: functional
Mus musculus [13] = species: Mus musculus; experiment: 50% Effective dose against systemic Infection in mouse by Escherichia coli 851E; assay type: functional
Mus musculus [14] = species: Mus musculus; experiment: 50% Effective dose against systemic Infection in mouse by Pseudomonas aeruginosa 1912E; assay type: functional
Mus musculus [15] = species: Mus musculus; experiment: 50% Effective dose against systemic Infection in mouse by Staphylococcus aureus giorgio; assay type: functional
Mus musculus [16] = species: Mus musculus; experiment: 50% Effective dose against systemic Infection in mouse by Streptococcus pneumoniae 77A; assay type: functional
Mus musculus [17] = species: Mus musculus; experiment: Minimum inhibitory concentration (MIC) against systemic infection in mouse by Staphylococcus aureus giorgio; assay type: functional
Mus musculus [18] = species: Mus musculus; experiment: Minimum inhibitory concentration (MIC) against systemic infection in mouse by Streptococcus pneumoniae 77A; assay type: functional
Pseudomonas aeruginosa [19] = experiment: Minimum inhibitory concentration (MIC) against Pseudomonas aeruginosa 1912E; assay type: functional
Staphylococcus aureus = experiment: Minimum inhibitory concentration (MIC) against Staphylococcus aureus 241; assay type: functional
[20] = system: Staphylococcus epidermidis; experiment: Minimum inhibitory concentration (MIC) against Staphylococcus epidermidis 178; assay type: functional
Enterococcus faecalis = experiment: Minimum inhibitory concentration (MIC) against Streptococcus faecalis 29212; assay type: functional
Escherichia coli [21] = experiment: Minimum inhibitory concentration (MIC) against Escherichia coli 851E
Pseudomonas aeruginosa [22] = experiment: Minimum inhibitory concentration (MIC) against Pseudomonas aeruginosa 1912E

## CO/N=C1\CN(c2nc3c(cc2F)c(=O)c(C(=O)O)cn3C2CC2)CC1CN (stereo in doubt; 20) [GEMIFLOXACIN]
[1]
  Cmax: 1340 ng/mL
[2]
  Cmax: 2440 ng/mL
[3]
  AUC: 7550 ng·h/mL
[4]
  AUC: 8500 ng·h/mL
[5]
  half-life: 2.33 h
[6]
  bioavailability: 71%
[7]
  bioavailability: 95.3%
[8]
  Tmax: 0.33 h
[9]
  Tmax: 1.13 h
[10]
  MIC: 0.063 µg/mL (≈ 0.162 µM)
[11]
  half-life: 5.12 h
Escherichia coli [12]
  MIC: 0.031 µg/mL (≈ 0.0796 µM)
Klebsiella aerogenes
  MIC: 0.031 µg/mL (≈ 0.0796 µM)
Mus musculus [13]
  ED50: 0.47 mg/kg
Mus musculus [14]
  ED50: 2.08 mg/kg
Mus musculus [15]
  ED50: 1.17 mg/kg
Mus musculus [16]
  ED50: 7.64 mg/kg
Mus musculus [17]
  MIC: < 0.008 µg/mL
Mus musculus [18]
  MIC: 0.016 µg/mL (≈ 0.0411 µM)
Pseudomonas aeruginosa [19]
  MIC: 0.25 µg/mL (≈ 0.642 µM)
Staphylococcus aureus
  MIC: 4 µg/mL (≈ 10.3 µM)
[20]
  MIC: 4 µg/mL (≈ 10.3 µM)
Enterococcus faecalis
  MIC: 0.063 µg/mL (≈ 0.162 µM)
Escherichia coli [21]
  MIC: < 0.008 µg/mL
Pseudomonas aeruginosa [22]
  MIC: 0.25 µg/mL (≈ 0.642 µM)
